Laboratory results from ChEMBL document CHEMBL3826954, “Structure-Guided Discovery of Selective Antagonists for the Chromodomain of Polycomb Repressive Protein CBX7” (ACS Med Chem Lett, 2016).
Calls of active or inactive are those of the source. The calls are words filed in the database; no cut-off is given here.

Tests used:
[1] = target: T1, Chromobox protein homolog 7 (Homo sapiens) (UniProt O95931); experiment: Antagonist activity at CBX7ChD (7 to 66 residues) expressed in human PC3 cells assessed as transcriptional derepression of p16INK4a at 50 to 250 uM after 12 hrs by qPCR method; assay type: cell-based; conditions: PC-3
T1 sequence (whole entry): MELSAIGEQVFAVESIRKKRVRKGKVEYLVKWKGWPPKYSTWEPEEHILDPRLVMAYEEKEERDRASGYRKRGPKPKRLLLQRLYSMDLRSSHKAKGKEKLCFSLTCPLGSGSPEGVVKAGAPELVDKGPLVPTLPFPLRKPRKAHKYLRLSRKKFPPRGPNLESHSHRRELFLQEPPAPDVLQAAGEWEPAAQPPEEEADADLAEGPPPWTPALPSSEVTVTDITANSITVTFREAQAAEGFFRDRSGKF

[2] = target: T2, Chromobox protein homolog 7 (Homo sapiens, UniProt O95931); experiment: Binding affinity to CBX7ChD (7 to 66 residues) (unknown origin) expressed in RIPL-BL21 (DE3)-CodonPlus competent cells assessed as compound/protein/FITC-labeled loop C of ANRIL ternary complex formation by fluorescence anisotropy assay
T2 sequence (O95931 whole entry): T1 sequence (whole entry)

[3] = target: T2, Chromobox protein homolog 7; experiment: Binding affinity to CBX7ChD (7 to 66 residues) (unknown origin) expressed in RIPL-BL21 (DE3)-CodonPlus competent cells in presence of FITC-labeled SETDB1-K1170me3/H3K27me3/ANRIL-LoopC RNA by fluorescence anisotropy assay
[4] = Induction of transcriptional derepression of HIF1a in human PC3 cells at 1 to 5 uM after 12 hrs by qPCR method; assay type: cell-based; conditions: pc-3, 12 h
[5] = target: T3, Chromobox protein homolog 7 (Mus musculus) (UniProt Q8VDS3); experiment: Antagonist activity at CBX7ChD (7 to 66 residues) expressed in mouse embryoid bodies assessed as transcriptional derepression of p16INK4a mRNA levels at 1 to 2 uM after 12 hrs by qPCR method
T3 sequence (whole entry): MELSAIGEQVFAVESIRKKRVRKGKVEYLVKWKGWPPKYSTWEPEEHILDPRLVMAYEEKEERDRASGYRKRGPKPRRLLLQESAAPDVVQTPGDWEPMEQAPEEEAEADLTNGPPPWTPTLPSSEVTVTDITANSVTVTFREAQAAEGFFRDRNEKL

[6] = target: T3, Chromobox protein homolog 7 (Mus musculus); experiment: Antagonist activity at CBX7ChD (7 to 66 residues) expressed in mouse embryonic stem cells assessed as transcriptional derepression of noggin at 0.5 uM after 18 to 36 hrs by qPCR method; assay type: cell-based
[7] = target: T3, Chromobox protein homolog 7 (Mus musculus); experiment: Antagonist activity at CBX7ChD (7 to 66 residues) expressed in mouse embryonic stem cells assessed as transcriptional derepression of Hoxd3 at 0.5 uM after 18 to 36 hrs by qPCR method; assay type: cell-based
[8] = target: T3, Chromobox protein homolog 7 (Mus musculus); experiment: Antagonist activity at CBX7ChD (7 to 66 residues) expressed in mouse embryonic stem cells assessed as p16INK4a expression levels at 1 to 2 uM after 12 hrs by Western blot analysis; assay type: cell-based
[9] = target: T3, Chromobox protein homolog 7 (Mus musculus); experiment: Antagonist activity at CBX7ChD (7 to 66 residues) expressed in mouse embryonic stem cells assessed as reduction of protein occupancy at Hoxd3 gene locus at 0.5 uM after 18 to 36 hrs by ChIP analysis; assay type: cell-based
[10] = Induction of transcriptional derepression of Gapdh in mouse embryonic stem cells at 0.5 uM after 18 to 36 hrs by qPCR method; assay type: cell-based; conditions: embryonic stem cell
[11] = target: T1, Chromobox protein homolog 7 (Homo sapiens); experiment: Antagonist activity at CBX7ChD (7 to 66 residues) expressed in human PC3 cells assessed as transcriptional derepression of p16INK4a after 12 hrs by qPCR method; assay type: cell-based; conditions: PC-3
[12] = target: T1, Chromobox protein homolog 7 (Homo sapiens); experiment: Binding affinity to CBX7ChD (7 to 66 residues) (unknown origin) expressed in RIPL-BL21 (DE3)-CodonPlus competent cells assessed as enhancement of FITC-ANRIL-loopC/FITC-16mer-RNA binding to protein by fluorescence anisotropy assay
[13] = target: T2, Chromobox protein homolog 7; experiment: Binding affinity to 15N-labeled CBX7ChD (7 to 66 residues) (unknown origin) expressed in RIPL-BL21 (DE3)-CodonPlus competent cells by HSQC/NMR titration

SMILES | inhibition [1] | Ki [3] [µM] | other results
COc1cccc(C(=O)N2CCN(C(=O)COc3cc(C)c(N)c(C(C)C)c3)CC2)c1OC | inactive | – | –
COc1cccc(C(=O)N2CCN(C(=O)COc3cccc(C)c3)CC2)c1OC | inactive | 33.1 | Kd [2]: 125 µM
COc1cccc(C(=O)N2CCN(C(=O)COc3cc(C)c(N)c(C)c3)CC2)c1OC | – | 16.9 | –
Cc1ccccc1Cn1c(=N)n(CC(O)c2ccc(Cl)c(Cl)c2)c2ccccc21 (stereo not given) | – | – | Activity [4]: Non-toxic; inhibition [5]: Active; inhibition [6]: Active; Kd [2]: 23.8 µM; inhibition [7]: Active; inhibition [8]: Active; inhibition [9]: Active; Activity [10]: Non-toxic; inhibition [11]: Dose-dependent effect; Activity [12]: Dose-dependent effect; Kd [13]: 500 µM
CCS(=O)(=O)Nc1c(C)cc(OCC(=O)N2CCN(C(=O)c3cccc(OC)c3OC)CC2)cc1C | inactive | 10 | –
COc1cccc(C(=O)N2CCN(C(=O)COc3cc(C)c(NC(N)=O)c(C)c3)CC2)c1OC | – | 4.8 | –
COc1cccc(C(=O)N2CCN(C(=O)COc3cc(C)c(NS(C)(=O)=O)c(C)c3)CC2)c1OC | inactive | – | –

Further lines, with some results ahead:

inhibition [1] | Ki [3] [µM] | SMILES | other results
– | 39.3 | COc1cccc(C(=O)N2CCN(C(=O)COc3ccc(N)c(C)c3)CC2)c1OC | –
– | 10 | COc1cccc(C(=O)N2CCN(C(=O)COc3ccc(NC(N)=O)c(C)c3)CC2)c1OC | –
inactive | – | COc1cccc(C(=O)N2CCN(C(=O)COc3ccc(NC(C)=O)c(C)c3)CC2)c1OC | –
inactive | 25 | CCS(=O)(=O)Nc1ccc(OCC(=O)N2CCN(C(=O)c3cccc(OC)c3OC)CC2)cc1C | –
